Reference: the NIST ThermoML archive (doi:10.1021/je200030k)

Columns and labels:
[1] = refractive index (Na D-line) (dimensionless); xn = mol fraction of the nth substance listed; settings: 101 kPa, Liquid, Standard Abbe refractometry
[2] = xn = mol fraction of the nth substance listed; settings: 101 kPa, Liquid, Vibrating tube method

CCCCn1cc[n+](C)c1.NCC(=O)[O-] [1-butyl-3-methylimidazolium glycinate] + CC(C)O
Settings | mass density, [2] [kg/m3] | refractive index, [1]
298.15 K, x1 = 0.0965 | 877.6 | 1.405
298.15 K, x1 = 0.1992 | 957.8 | 1.43
298.15 K, x1 = 0.3059 | 1024.4 | 1.451
298.15 K, x1 = 0.3977 | 1071.9 | 1.466
298.15 K, x1 = 0.5115 | 1121.6 | 1.48
298.15 K, x1 = 0.5868 | 1149.9 | 1.488
298.15 K, x1 = 0.7052 | 1188.4 | 1.499
298.15 K, x1 = 0.8117 | 1217.5 | 1.509
298.15 K, x1 = 0.8775 | – | 1.514
303.15 K, x1 = 0.0965 | 870.7 | 1.404
303.15 K, x1 = 0.1992 | 951.4 | 1.429
303.15 K, x1 = 0.3059 | 1018.6 | 1.45
303.15 K, x1 = 0.3977 | 1066.5 | 1.464
303.15 K, x1 = 0.5115 | 1116.8 | 1.478
303.15 K, x1 = 0.5868 | 1145.4 | 1.487
303.15 K, x1 = 0.7052 | 1184.3 | 1.499
303.15 K, x1 = 0.8117 | 1213.9 | 1.508
303.15 K, x1 = 0.8775 | – | 1.513
308.15 K, x1 = 0.0965 | 863 | 1.403
308.15 K, x1 = 0.1992 | 944.2 | 1.429
308.15 K, x1 = 0.3059 | 1012 | 1.449
308.15 K, x1 = 0.3977 | 1060.6 | 1.463
308.15 K, x1 = 0.5115 | 1111.4 | 1.477
308.15 K, x1 = 0.5868 | 1140.5 | 1.486
308.15 K, x1 = 0.7052 | 1180 | 1.497
308.15 K, x1 = 0.8117 | 1210 | 1.505
308.15 K, x1 = 0.8775 | 1226.4 | 1.51
313.15 K, x1 = 0.0965 | 854.7 | 1.402
313.15 K, x1 = 0.1992 | 936.6 | 1.427
313.15 K, x1 = 0.3059 | 1005 | 1.449
313.15 K, x1 = 0.3977 | 1054.1 | 1.462
313.15 K, x1 = 0.5115 | 1105.8 | 1.477
313.15 K, x1 = 0.5868 | 1135.3 | 1.485
313.15 K, x1 = 0.7052 | 1175.4 | 1.497
313.15 K, x1 = 0.8117 | 1205.9 | 1.506
313.15 K, x1 = 0.8775 | – | 1.511

CCCCn1cc[n+](C)c1.NCC(=O)[O-] [1-butyl-3-methylimidazolium glycinate] + CCCCO
Settings | mass density, [2] [kg/m3] | refractive index, [1]
298.15 K, x1 = 0.0972 | 885.2 | 1.418
298.15 K, x1 = 0.2125 | 962.5 | 1.438
298.15 K, x1 = 0.3041 | 1014.1 | 1.454
298.15 K, x1 = 0.3849 | 1054.3 | 1.465
298.15 K, x1 = 0.4929 | 1101.4 | 1.478
298.15 K, x1 = 0.6103 | 1146.3 | 1.49
298.15 K, x1 = 0.6923 | 1174.2 | 1.497
298.15 K, x1 = 0.8037 | 1208.4 | 1.506
298.15 K, x1 = 0.9129 | – | 1.514
303.15 K, x1 = 0.0972 | 881.7 | 1.417
303.15 K, x1 = 0.2125 | 959.1 | 1.438
303.15 K, x1 = 0.3041 | 1010.9 | 1.452
303.15 K, x1 = 0.3849 | 1051.2 | 1.463
303.15 K, x1 = 0.4929 | 1098.4 | 1.476
303.15 K, x1 = 0.6103 | 1143.3 | 1.488
303.15 K, x1 = 0.6923 | 1171.2 | 1.496
303.15 K, x1 = 0.8037 | 1205.4 | 1.505
303.15 K, x1 = 0.9129 | – | 1.513
308.15 K, x1 = 0.0972 | 878 | 1.415
308.15 K, x1 = 0.2125 | 955 | 1.437
308.15 K, x1 = 0.3041 | 1007 | 1.45
308.15 K, x1 = 0.3849 | 1048 | 1.461
308.15 K, x1 = 0.4929 | 1095 | 1.474
308.15 K, x1 = 0.6103 | 1140 | 1.487
308.15 K, x1 = 0.6923 | 1168 | 1.495
308.15 K, x1 = 0.8037 | 1202 | 1.504
308.15 K, x1 = 0.9129 | 1232 | 1.512
313.15 K, x1 = 0.0972 | 874 | 1.413
313.15 K, x1 = 0.2125 | 952 | 1.435
313.15 K, x1 = 0.3041 | 1004 | 1.45
313.15 K, x1 = 0.3849 | 1044 | 1.461
313.15 K, x1 = 0.4929 | 1092 | 1.474
313.15 K, x1 = 0.6103 | 1137 | 1.486
313.15 K, x1 = 0.6923 | 1165 | 1.495
313.15 K, x1 = 0.8037 | 1199 | 1.503
313.15 K, x1 = 0.9129 | – | 1.51
